Test results published in patent US20120029068A1, “TRANSDERMAL FLUID” (MALAYSIAN PALM OIL BROARD A/K/A MPOB, priority 2007, published 2012).
Where two headings read alike, the source gives them in different places.

Tests used:
MCF-7 = settings: absence and presence of estradiol and tamoxifen; cited from earlier work
ZR-75-1 cells = settings: absence and presence of estradiol and tamoxifen; cited from earlier work
[1] = system: human breast cancer cells; settings: cited from earlier work; for anti-proliferative and pro-apoptotic effects / inhibition of breast cancer cell growth: human breast cancer cells
[2] = rats fed 50 mg of α-T3 or α-T, α-T3 vs α-T; cited from earlier work
MCF-7 cells = settings: α-T combined with tamoxifen; cited from earlier work
MDA-MB-231 cells = settings: cited from earlier work
prostate cancer cell = settings: comparison between homologues; cited from earlier work
IFN-γ = IFN-γ ELISA on splenocytes of mice immunized with OVA; type: in vivo, BALB/c mice; settings: transdermal δ-T3 vs control
Protocol: (§1) The mice were further immunized subcutaneously with ovalbumin (50 μg) adjuvanted in alum. Interferon-gamma (IFN-γ) was measured upon antigen specific stimulation of OVA.
The experimental mice were sacrificed using ether. Spleen was removed aseptically into RPMI complete medium and single cell suspension was made by teasing out the splenocytes from the spleen capsule. Before culture, cells were stained with 0.4% Trypan Blue Stain (GIBCO, Invitrogen Corp, New Zealand) and cell viability count was performed using a haemocytometer. The spleen cell suspension was diluted to give a 5×10^6 cells/ml solution and Concanavalin A (Sigma-Aldrich Inc, St Louis Mo., USA) was added at a final concentration of 25 μg/ml. 200 μl of this suspension was plated on to 96-well flat-bottomed tissue culture plates (Becton Dickinson, USA) and left in a humidified CO2 incubator at 37° C. for 72 hours. At the end of each incubation period, the plate was removed from the incubator and stored at −70° C. The plates were thawed prior to performing ELISA.
The tissue culture plates that were frozen at […] were thawed. […] The supernatant was analysed by ELISA to quantify the amount of IFN-γ and IL-4 produced following the in vitro stimulation with Concanavalin A. ELISA was performed using ELISA kits for mouse IFN-γ and IL-4 (BD, Pharmingen) as recommended by the manufacturers.

[3] = system: natural killer cells (NK); assay: Single colour flow cytometry with leukocyte marker antibodies, NK cells; type: in vivo, BALB/c mice; settings: whole blood, δ-tocotrienol group compared to control
Protocol: as §1
(§2) Fluorescein isothiocyanate (FITC) or Phycoerythrin-labeled antibodies were diluted by adding 20 μl of antibody to 50 μl of Staining Buffer in separate tubes. 100 μl of whole blood from mouse was added to each tube and mixed gently. The samples were then incubated for one hour at room temperature in the dark. After incubation, 2 ml of RBC Lysis Buffer was added into each tube and mixed gently. Samples were then centrifuged at 400 g for 5 minutes at room temperature. A wash step was carried out by adding 2 ml of Staining Buffer and samples were again centrifuged at 400 g for 5 minutes at room temperature. Supernatant was removed and 200 μl Staining Buffer was added into each tube followed by 204 μl of 4% Formalin. Samples were analysed using Flow Cytometer.

B-lymphocytes = assay: Single colour flow cytometry with leukocyte marker antibodies, B-lymphocytes; type: in vivo, BALB/c mice; settings: whole blood, δ-tocotrienol group compared to control
Protocol: as §1, §2

Splenocytes = assay: MTT viability assay of splenocytes; type: cell-based, BALB/c mice; settings: splenocytes of treated mice, addition of concanavalin A or OVA
Protocol: Viability of the cells was measured by the MTT assay. In this assay MTT is converted to a blue formazan product by dehydrogenases that are active in living cells. Splenocytes were seeded with concanavalin A or OVA in a 96 well plate in a total volume of 200 μl of medium. MTT (25 μl of 5 mg/ml) was added to each well. After 4 hours, 100 μl of extraction buffer consisting of 20% SDS dissolved in a 50% dimethyl formamide/50% water solution at pH 4.0 was added. The blue colour formed was measured at 590 nm.
The MTT assay uses the principle whereby cell growth or cell death is indicated by the conversion or lack of conversion of the tetrazolium salt to the coloured product, formazan, the concentration of which can be measured spectrophotometrically.

[4] = mouse, in vivo
Protocol: BALB/c mice were divided into 2 groups. Control group only received ethanol the carrier whilst the experimental group was treated with 1 mg of δ-tocotrienols daily for 4 weeks. It was applied on the back to examine subcutaneous absorption.
Female BALB/c mice 3 to 4 weeks old were obtained from the Animal Breeding Unit, Institute for Medical Research (IMR), Kuala Lumpur, Malaysia. […] The control animals were treated with ethanol alone whilst the experimental groups were applied daily with 0.5 ml of a 20 mg/ml concentration to deliver 1 mg of δ-tocotrienol.
The tocopherols and tocotrienols were analysed by HPLC. The system used was a Shimadzu LC-10AT HPLC coupled with a Shimadzu Model RF-10AXL fluorescence spectrophotometer, Shimadzu Class VP data acquisition software, and silica column (YMC A-012/150×6 mm I.D, 5 μm). The eluting solvent was hexane/isopropyl alcohol (99.5/0.5 v/v) at a flow rate of 2.0 ml/min. The detector was set at excitation wavelength of 295 nm and emission wavelength of 325 nm. 500 mg adipose tissue was homogenized with 4:1:1 mixture of hexane:ethanol and 0.9% sodium chloride at 10000 rpm for 5 minutes. The homogenate was then centrifuged at 2000 rpm for 5 minutes. The resulting supernatant was filtered and evaporated using a rotary evaporator. A known amount of lipid sample was dissolved in a 10 ml volumetric flask using the eluting solvent and 10 μl of the solution was injected into the HPLC system. A standard solution of a mixture of α, γ, and δ-tocotrienols was also injected accordingly. Quantification of the major components of vitamin E was carried out by comparing the peak areas of the components with those of the standards.

CC(C)=CCC/C(C)=C/CC/C(C)=C/CC[C@]1(C)CCc2c(C)c(O)c(C)c(C)c2O1 [α-T3, α-tocotrienol]
proliferation of MCF-7 (MCF-7): inhibited proliferation | proliferation of ZR-75-1 cells (ZR-75-1 cells): inhibited proliferation | anti-proliferative and pro-apoptotic effects / inhibition of breast cancer cell growth [1]: potent anti-proliferative and pro-apoptotic effects | concentration in adipose tissue and skin [2]: significantly higher

Cc1c(C)c2c(c(C)c1O)CC[C@@](C)(CCC[C@H](C)CCC[C@H](C)CCCC(C)C)O2 [α-T, α-tocopherol]
increase of the IC50 for tamoxifen (MCF-7 cells): more than 1000 fold | effect on growth inhibitory effects of tamoxifen (MDA-MB-231 cells): completely blocked | anti-proliferative and pro-apoptotic effects / inhibition of breast cancer cell growth [1]: no effect

CC(C)=CCC/C(C)=C/CC/C(C)=C/CC[C@]1(C)CCc2cc(O)c(C)c(C)c2O1 [γ-T3, γ-tocotrienol]
proliferation of MCF-7 (MCF-7): inhibited proliferation | proliferation of ZR-75-1 cells (ZR-75-1 cells): inhibited proliferation | anti-proliferative and pro-apoptotic effects / inhibition of breast cancer cell growth [1]: potent anti-proliferative and pro-apoptotic effects | effect on prostate cancer cell growth (prostate cancer cell): greater anti-proliferative effects than γ-T

Cc1c(O)cc2c(c1C)O[C@](C)(CCC[C@H](C)CCC[C@H](C)CCCC(C)C)CC2 [γ-T, γ-tocopherol, reference compound]
effect on prostate cancer cell growth (prostate cancer cell): much stronger inhibitory effect

CC(C)=CCC/C(C)=C/CC/C(C)=C/CC[C@]1(C)CCc2cc(O)cc(C)c2O1 [δ-T3, δ-tocotrienol]
IFN-γ in splenocytes (IFN-γ): significantly higher | IFN-γ in splenocytes (IFN-γ; listed as δ-tocotrienols): significant increase | natural killer cells [3]: significantly increased | natural killer cells ([3]; listed as δ-tocotrienols): increase | B-lymphocytes (B-lymphocytes): significantly increased | B-lymphocytes (B-lymphocytes; listed as δ-tocotrienols): increase | splenocyte growth (MTT OD reading) (Splenocytes): grew normally | changes in tocotrienol levels in blood, spleen and liver [4]: only seen at week 4 | concentration in adipose and subcutaneous fat tissue at week 3 [4]: drop in concentration | time of optimum concentration in breast and abdominal adipose and subcutaneous fat tissue [4]: 2 week | δ-T3 in breast and abdominal adipose and subcutaneous fat tissue [4]: significant increases | proliferation of MCF-7 (MCF-7): inhibited proliferation | proliferation of ZR-75-1 cells (ZR-75-1 cells): inhibited proliferation | synergistic efficacy with Tamoxifen ([1]; breast cancer): highest synergistic efficacy | anti-proliferative and pro-apoptotic effects / inhibition of breast cancer cell growth [1]: potent anti-proliferative and pro-apoptotic effects | anti-proliferative and pro-apoptotic effects / inhibition of breast cancer cell growth ([1]; listed as δ-tocotrienol): most effective inhibitor
